Columns and labels:
Assay in all cases: relative viability (nuclei count vs DMSO), 5 days (fraction); higher = more cells survive
[1] = compound: CC1=CN=C(N=C1C2=CNC(=C2)C(=O)N[C@H](CO)C3=CC(=CC=C3)Cl)NC4=C(C=C(C=C4)F)Cl [VX-11e] + Nc1ncn([C@H]2C[C@H](O)[C@@H](CO)O2)c(=O)n1 [Decitabine] (partner 2 µM)
In short: (§1)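 Relative viability was taken as the ratio of nuclei in treated wells to nuclei in vehicle wells. Lung cancer cell lines in 1536-well plates received compounds by pin tool one day after seeding, either one drug alone or a fixed anchor-drug dose plus five library-drug doses (not always all listed) in √10 steps. Nuclei were counted on 4× images after 5 days of treatment, and values are medians of duplicate plates.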

[2] = compound: CC1=CN=C(N=C1C2=CNC(=C2)C(=O)N[C@H](CO)C3=CC(=CC=C3)Cl)NC4=C(C=C(C=C4)F)Cl [VX-11e] + Cc1cc(Nc2cc(N3CCN(C)CC3)nc(Sc3ccc(NC(=O)C4CC4)cc3)n2)n[nH]1 [Tozasertib] (partner 0.1 µM)
In short: as §1

[3] = compound: CC1=CN=C(N=C1C2=CNC(=C2)C(=O)N[C@H](CO)C3=CC(=CC=C3)Cl)NC4=C(C=C(C=C4)F)Cl [VX-11e] + C[C@@H](Oc1cc(-c2cnn(C3CCNCC3)c2)cnc1N)c1c(Cl)ccc(F)c1Cl [Crizotinib] (partner 1 µM)
In short: as §1

[4] = compound: CC1=CN=C(N=C1C2=CNC(=C2)C(=O)N[C@H](CO)C3=CC(=CC=C3)Cl)NC4=C(C=C(C=C4)F)Cl [VX-11e] + CS(=O)(=O)CCNCc1ccc(-c2ccc3ncnc(Nc4ccc(OCc5cccc(F)c5)c(Cl)c4)c3c2)o1 [Lapatinib] (partner 2 µM)
In short: as §1

Cell Line | relative viability ([1]; first compound 0.04 µM) | relative viability ([1]; first compound 0.1265 µM) | relative viability ([1]; first compound 0.4 µM) | relative viability ([1]; first compound 1.265 µM) | relative viability ([1]; first compound 4 µM) | relative viability ([2]; first compound 0.04 µM) | relative viability ([2]; first compound 0.1265 µM) | relative viability ([2]; first compound 0.4 µM) | relative viability ([2]; first compound 1.265 µM) | relative viability ([2]; first compound 4 µM) | relative viability ([3]; first compound 0.04 µM) | relative viability ([3]; first compound 0.1265 µM) | relative viability ([3]; first compound 0.4 µM) | relative viability ([3]; first compound 1.265 µM) | relative viability ([3]; first compound 4 µM) | relative viability ([4]; first compound 0.04 µM) | relative viability ([4]; first compound 0.1265 µM) | relative viability ([4]; first compound 0.4 µM) | relative viability ([4]; first compound 1.265 µM) | relative viability ([4]; first compound 4 µM)
LCLC-103H | 0.726 | 0.701 | 0.726 | 0.742 | 0.608 | 0.467 | 0.412 | 0.48 | 0.3 | 0.4 | 1.01 | 1.09 | 0.968 | 0.882 | 0.852 |  |  |  |  | 
NCI-H441 | 0.282 | 0.273 |  | 0.218 | 0.306 | 0.753 | 0.55 |  | 0.585 | 0.453 | 0.711 | 0.72 |  | 0.857 | 0.555 |  |  |  |  | 
NCI-H1299 |  |  |  |  |  |  |  |  |  |  | 0.994 | 0.879 | 0.956 | 0.84 | 0.47 | 0.984 | 0.953 | 1.1 | 0.918 | 0.559
NCI-H1395 | 0.734 | 0.721 |  | 0.695 | 0.62 | 0.75 | 0.688 | 0.689 | 0.781 | 0.547 |  |  |  |  |  | 0.969 | 0.864 | 0.548 | 0.82 | 0.716
NCI-H1563 |  |  |  |  |  |  |  |  |  |  | 0.861 | 0.799 | 0.969 | 0.91 | 0.642 | 0.938 | 0.795 | 0.529 | 0.854 | 0.864
NCI-H1648 |  | 0.584 | 0.491 | 0.654 | 0.42 | 0.515 | 0.378 | 0.566 | 0.292 | 0.318 |  |  |  |  |  |  |  |  |  | 
